According to ChEMBL document CHEMBL6121046, “Discovery of Novel Hydrazide-Based HDAC3 Inhibitors as Epigenetic Immunomodulators for Cancer Immunotherapy” (J Med Chem, 2025):
Activity calls are given as the source filed them. The rule behind the calls is not given here.

How the values were obtained:
[1] = tested on: MC-38; experiment: Induction of ROS production in mouse MC38 cells assessed as increase in intracellular ROS level measured after 48 hrs by flow cytometry; assay type: functional, cell-based
[2] = tested on: MC-38; experiment: Induction of ROS production in mouse MC38 cells assessed as increase in intracellular ROS level measured after 48 hrs by DCFH-DA/Brightfield - fluorescence imaging analysis; assay type: functional, cell-based
[3] = tested on: MC-38; experiment: Induction of mitochondrial membrane damage in mouse MC38 cells assessed as decrease in JC-1 aggregation by measuring red fluorescence at 1 uM measured after 48 hrs (reference value: 96.70%); assay type: functional; parameters: scale not given: the % may be the effect or the level left
[4] = AUC (0 to t) in Sprague-Dawley rat at 20 mg/kg, iv measured upto 12 hrs by LC-MS/MS analysis; assay type: ADME, organism-based; conditions: in vivo
[5] = AUC (0 to infinity) in Sprague-Dawley rat at 20 mg/kg, iv measured upto 12 hrs by LC-MS/MS analysis; assay type: ADME, organism-based; conditions: in vivo
[6] = MRT (0 to t) in Sprague-Dawley rat at 20 mg/kg, iv measured upto 12 hrs by LC-MS/MS analysis; assay type: ADME, organism-based; conditions: in vivo
[7] = MRT (0 to infinity) in Sprague-Dawley rat at 20 mg/kg, iv measured upto 12 hrs by LC-MS/MS analysis; assay type: ADME, organism-based; conditions: in vivo
[8] = Half life in Sprague-Dawley rat at 20 mg/kg, iv measured upto 12 hrs by LC-MS/MS analysis; assay type: ADME, organism-based; conditions: in vivo
[9] = Clearance in Sprague-Dawley rat at 20 mg/kg, iv measured upto 12 hrs by LC-MS/MS analysis; assay type: ADME, organism-based; conditions: in vivo
[10] = Cmax in Sprague-Dawley rat at 20 mg/kg, iv measured upto 12 hrs by LC-MS/MS analysis; assay type: ADME, organism-based; conditions: in vivo
[11] = AUC (0 to t) in Sprague-Dawley rat at 20 mg/kg, po measured upto 12 hrs by LC-MS/MS analysis; assay type: ADME, organism-based; conditions: in vivo
[12] = Volume of distribution at steady state in Sprague-Dawley rat at 20 mg/kg, po measured upto 12 hrs by LC-MS/MS analysis; assay type: ADME, organism-based; conditions: in vivo
[13] = Cmax in Sprague-Dawley rat at 20 mg/kg, po measured upto 12 hrs by LC-MS/MS analysis; assay type: ADME, organism-based; conditions: in vivo
[14] = Toxicity in C57BL/6 mouse allografted with mouse MC38 cells assessed as body weight loss at 50 mg/kg, po treated 5 days after cell inoculation 19 th day; assay type: organism-based; conditions: in vivo, 360 h, time 15 day
[15] = tested on: Mus musculus; experiment: Immunomodulatory effect in C57BL/6 mouse allografted mouse MC38 cells assessed as increase in tumor infiltrating lymphocytes by measuring increase in CD4+ T helper cells in mouse blood at 50 mg/kg, po treated 5 days after cell inoculation 19 th day by flow cytometry analysis (reference value: 0.27%); assay type: functional; conditions: time 15 day
[16] = tested on: Mus musculus; experiment: Immunomodulatory effect in C57BL/6 mouse allografted mouse MC38 cells assessed as increase in tumor infiltrating lymphocytes by measuring increase in CD4+ T helper cells in mouse blood in presence of NP19 PD-L1 inhibitor at 50 mg/kg, po treated 5 days after cell inoculation 19 th day by flow cytometry analysis (reference value: 0.27%); assay type: functional; conditions: time 15 day
[17] = tested on: Mus musculus; experiment: Immunomodulatory effect in C57BL/6 mouse allografted mouse MC38 cells assessed as increase in tumor infiltrating lymphocytes by measuring increase in CD4+ T helper cells in mouse lymph nodes at 50 mg/kg, po treated 5 days after cell inoculation 19 th day by flow cytometry analysis (reference value: 15.5%); assay type: functional; conditions: time 15 day
[18] = tested on: Mus musculus; experiment: Immunomodulatory effect in C57BL/6 mouse allografted mouse MC38 cells assessed as increase in tumor infiltrating lymphocytes by measuring increase in […] in mouse lymph nodes at 50 mg/kg, po treated 5 days after cell inoculation 19 th day by flow cytometry analysis (reference value: 20.3%); assay type: functional; conditions: time 15 day
[19] = tested on: Mus musculus; experiment: Immunomodulatory effect in C57BL/6 mouse allografted mouse MC38 cells assessed as increase in tumor infiltrating lymphocytes by measuring increase in […] in mouse lymph nodes in presence of NP19 PD-L1 inhibitor at 50 mg/kg, po treated 5 days after cell inoculation 19 th day by flow cytometry analysis (reference value: 20.3%); assay type: functional; conditions: time 15 day
[20] = tested on: Mus musculus; experiment: Immunomodulatory effect in C57BL/6 mouse allografted mouse MC38 cells assessed as increase in tumor infiltrating lymphocytes by measuring increase in CD4+ T helper cells in mouse spleen at 50 mg/kg, po treated 5 days after cell inoculation 19 th day by flow cytometry analysis (reference value: 10.8%); assay type: functional; conditions: time 15 day
[21] = tested on: Mus musculus; experiment: Immunomodulatory effect in C57BL/6 mouse allografted mouse MC38 cells assessed as increase in tumor infiltrating lymphocytes by measuring increase in […] in mouse spleen in presence of NP19 PD-L1 inhibitor at 50 mg/kg, po treated 5 days after cell inoculation 19 th day by flow cytometry analysis (reference value: 13.6%); assay type: functional; conditions: time 15 day
[22] = tested on: Mus musculus; experiment: Immunomodulatory effect in C57BL/6 mouse allografted mouse MC38 cells assessed as increase in tumor infiltrating lymphocytes by measuring increase in CD4+ T helper cells in tumor at 50 mg/kg, po treated 5 days after cell inoculation 19 th day by flow cytometry analysis (reference value: 2.57%); assay type: functional; conditions: time 15 day
[23] = tested on: Mus musculus; experiment: Immunomodulatory effect in C57BL/6 mouse allografted mouse MC38 cells assessed as increase in tumor infiltrating lymphocytes by measuring increase in CD4+ T helper cells in tumor in presence of NP19 PD-L1 inhibitor at 50 mg/kg, po treated 5 days after cell inoculation 19 th day by flow cytometry analysis (reference value: 2.57%); assay type: functional; conditions: time 15 day
[24] = tested on: Mus musculus; experiment: Immunomodulatory effect in C57BL/6 mouse allografted mouse MC38 cells assessed as increase in tumor infiltrating lymphocytes by measuring increase in CD8+ T […] cells in tumor in presence of NP19 PD-L1 inhibitor at 50 mg/kg, po treated 5 days after cell inoculation 19 th day by flow cytometry analysis (reference value: 2.32%); assay type: functional; conditions: time 15 day
[25] = tested on: Mus musculus; experiment: Immunomodulatory effect in C57BL/6 mouse allografted with mouse MC38 cells assessed as increase in tumor infiltrating lymphocytes by measuring increase in CD3+ CD4+ cells at 50 mg/kg, po treated 5 days after cell inoculation 19 th day by flow cytometry analysis; assay type: functional, organism-based; conditions: time 15.0 day
[26] = tested on: Mus musculus; experiment: Immunomodulatory effect in C57BL/6 mouse allografted with mouse MC38 cells assessed as increase in tumor infiltrating lymphocytes by measuring increase in CD3+ CD4+ cells in presence of NP19 PD-L1 inhibitor at 50 mg/kg, po treated 5 days after cell inoculation 19 th day by flow cytometry analysis; assay type: functional, organism-based; conditions: time 15.0 day
[27] = tested on: Mus musculus; experiment: Induction of acetylated H3 level in tumor in C57BL/6 mouse allografted with mouse MC38 cells in presence of NP19 PD-L1 inhibitor at 50 mg/kg, po treated 5 days after cell inoculation 19 th day by immunofluorescence analysis; assay type: functional, organism-based; conditions: time 15.0 day
[28] = Toxicity in C57BL/6 mouse allografted with mouse MC38 cells assessed as pathological changes in heart at 50 mg/kg, po treated 5 days after cell inoculation 19 th day by hematoxylin and eosin analysis; assay type: organism-based; conditions: in vivo, 360 h, time 15 day
[29] = Toxicity in C57BL/6 mouse allografted with mouse MC38 cells assessed as pathological changes in lung at 50 mg/kg, po treated 5 days after cell inoculation 19 th day by hematoxylin and eosin analysis; assay type: organism-based; conditions: in vivo, 360 h, time 15 day

In the case of `CCCNNC(=O)c1ccc(CNC(=O)c2cnc(-c3ccc4occc4c3)[nH]2)cc1`, the Activity [1] is reported as “Dose-dependent-effect”, the Activity [2] is reported as “Dose-dependent-effect” and the Activity [3] is reported as 93.57%. It also gave an AUC(0-t) at 12 h [4] of 1250 ng·h/mL, an AUC [5] of 1249.2 ng·h/mL and an MRT last at 12 h [6] of 1.19 h. For the same molecule, the MRT inf [7] was 1.2 h, the half-life [8] was 1 h and the CL [9] was 27.8 mL/min/kg. It also gave a Cmax [10] of 1210 ng/mL, an AUC(0-t) at 12 h [11] of 1420 ng·h/mL and a Vdss [12] of 72.81 L/kg. For the same molecule, the Cmax [13] was 347 ng/mL, the Activity [14] was “Non-toxic” and the Activity [15] was 0.84%. For the same molecule, the Activity [16] was 0.98%, the Activity [17] was 20.3% and the Activity [18] was 29.6%. The Activity [19] was 31.6%, the Activity [20] was 12.9% and the Activity [21] was 17.4%. For the same molecule, the Activity [22] was 1.72%, the Activity [23] was 3.11% and the Activity [24] was 7.83%. For the same molecule, the Activity [25] was “Active”, the Activity [26] was “Active” and the Activity [27] was “Active”. The Activity [28] was “Non-toxic” and the Activity [29] was “Non-toxic”.
